Assays:
RKO cells = test: Subtraction microarray and semi-quantitative RT-PCR of gene expression after DAC and/or TSA treatment; format: cell-based, human; settings: for expression of Group 2 genes (n=23) / expression of Group 1 genes (n=51): RKO cells, semi-quantitative RT-PCR; for expression of Group 2 genes (n=23): DAC alone or TSA alone; for expression of Group 1 genes (n=51): low dose DAC alone, TSA alone or combined
Protocol: RKO cells were treated with 5-aza-2′-deoxycytidine (DAC; Sigma) and/or trichostatin A (TSA; Wako) as described (Cameron et al., supra, 1999). Briefly, the treatment consisted of DAC (200 nM) for 48 hr, with drug and medium replaced at the 24 hr time point after beginning of treatment, followed by addition of TSA to a final concentration of 300 nM (from a 1.5 mM ethanol dissolved stock) and incubation for an additional 24 hr. Cells also were treated with DAC alone or TSA alone, or mock treated, using the same volumes of PBS and/or ethanol, and/or same amount of the drugs. Some colorectal cancer (CRC) cell lines also were treated for RT-PCR analysis to assess more robust levels of gene expression; treatment was with 5 μM DAC for 72 hr, with drug and medium being replaced every 24 hr. Total RNA was extracted using the TRIZOL Reagent (Gibco/BRL), and used for microarray analysis, cDNA subtraction and RT-PCR. Prior to cDNA subtraction, poly A RNA was isolated from total RNA using the MESSAGE MAKER Reagent Assembly kit (Gibco/BRL). cDNA subtraction was performed with the combination treated RKO cell line as the tester, and mock treated cells as the driver by using the PCR-Select™ cDNA subtraction kit (Clontech). Synthesized cDNA was digested with Rsa I, and tester cDNA was ligated to adaptors included in the kit. After hybridization, PCR amplification of the subtracted cDNA was performed using the ADVANTAGE cDNA PCR kit (Clontech). Microarray analysis was performed using the Mammalian GeneFilters Microarrays™ system (Research Genetics). Filters were generated for approximately 5,000 of the genes analyzed in the Johns Hopkins Comprehensive microarray core, and filters for an additional 5,000 genes were purchased (Human GeneFilters Microarrays™ Release II; Research Genetics). A total of 10,814 genes and ESTs were analyzed. Hybridization of the filters was performed according to manufacturer's recommendation. Briefly, 5 μg of total RNA was reverse transcribed and labeled using oligo (dT)12-18 primer and ^32dCTP with SUPERSCRIPT II reverse transcriptase (Gibco/BRL). Hybridization of the filters was allowed to proceed for 12 to 18 hr. Data was analyzed using the PSCAN program (National Institutes of Health). For subtraction-microarray analysis, the 2nd PCR product from cDNA subtraction was labeled with ^33P using the MULTIPRIME DNA labeling system (Amersham). Hybridization and data analysis were performed as described above. Microarray analysis was repeated independently at least three times for each condition, and results for probing the arrays with cDNA for total RNA from mock treated cells were compared to those for hybridizations with subtraction PCR products. DNase I (Ambion) treated total RNA (2 μg) was reverse transcribed for single stranded cDNA using oligo (dT)12-18 primer with SUPERSCRIPT II reverse transcriptase (Gibco/BRL). PCR reactions were performed in a volume of 50 μl containing 1×PCR buffer (Gibco/BRL), 1.5 mM of MgCl2, 0.3 mM of dNTP, 0.25 μM of each primer and 2 U of Taq polymerase (Gibco/BRL). One hundred ng of cDNA was used for PCR amplification, and all of the genes were amplified with multiple cycle numbers (20 to 35 cycles) to determine appropriate conditions to obtain semi-quantitative differences in their expression levels. GAPDH PCR (25 and 28 cycles) was performed to ensure cDNA quality and loading accuracy. Amplification primer pairs were as shown in Table 4 (SEQ ID NOS: 149 to 296.

CRC cell lines = test: RT-PCR expression analysis of methylation silenced genes in CRC cell lines after DAC treatment; format: cell-based, human
Protocol: Briefly, the treatment consisted of DAC (200 nM) for 48 hr, with drug and medium replaced at the 24 hr time point after beginning of treatment, followed by addition of TSA to a final concentration of 300 nM (from a 1.5 mM ethanol dissolved stock) and incubation for an additional 24 hr. Cells also were treated with DAC alone or TSA alone, or mock treated, using the same volumes of PBS and/or ethanol, and/or same amount of the drugs. Some colorectal cancer (CRC) cell lines also were treated for RT-PCR analysis to assess more robust levels of gene expression; treatment was with 5 μM DAC for 72 hr, with drug and medium being replaced every 24 hr. Total RNA was extracted using the TRIZOL Reagent (Gibco/BRL), and used for microarray analysis, cDNA subtraction and RT-PCR. DNase I (Ambion) treated total RNA (2 μg) was reverse transcribed for single stranded cDNA using oligo (dT)12-18 primer with [sequence] II reverse transcriptase (Gibco/BRL). PCR reactions were performed in a volume of 50 μl containing 1×PCR buffer (Gibco/BRL), 1.5 mM of MgCl2, 0.3 mM of dNTP, 0.25 μM of each primer and 2 U of Taq polymerase (Gibco/BRL). One hundred ng of cDNA was used for PCR amplification, and all of the genes were amplified with multiple cycle numbers (20 to 35 cycles) to determine appropriate conditions to obtain semi-quantitative differences in their expression levels. GAPDH PCR (25 and 28 cycles) was performed to ensure cDNA quality and loading accuracy. […] For RT-PCR, SFRP2 sense and antisense primers were designed for exons 2 and 3, respectively; SFRP4 sense and antisense primers were designed for exons 2 and 5, respectively; and SFRP5 sense and antisense primers were designed for exons 2 and 3, respectively.

[1] = colorectal cancer cells and/or gastric cancer cells

## Nc1ncn([C@H]2C[C@H](O)[C@@H](CO)O2)c(=O)n1 [DAC, 5-aza-2′-deoxycytidine]
RKO cells
  expression of Group 2 genes (n=23): variable initial expression or response
  expression of Group 1 genes (n=51): minimal increase in expression
RKO cells; [1]
  basal level of expression of HOXA1, GRO3 and DLX7: increased
  expression of POR1, MBNL, TRADD, PDIP, RAD23B, RPL13, GNAI2, PPP1R21A, FPGT and TRIM32: vary among genes
  expression of PTGS2, CDKN2A, TIMP3, S100A10, SFRP1, CXX1, SEZZ6L, KIAA0786, TIMP2, PCDH8, FOLH1 and SNRPN (no detectable basal expression): re-expressed
CRC cell lines; CRC cell lines
  expression of FOLH1 and PCDH8 (silent genes): re-expression
CRC cell lines; CRC cell lines, DAC treatment
  basal expression of the hypermethylated SFRP genes (the three other than SFRP1): restored
CRC cell lines; SW480 cells
  KIAA0786 expression (not basally expressed despite a lack of methylation): reactivated
CRC cell lines; series of 8 CRC cell lines, incubation with DAC
  expression of Group 1a genes lacking basal expression in the methylated cell lines: restored

## CC(/C=C/C(=O)NO)=C\[C@@H](C)C(=O)c1ccc(N(C)C)cc1 [TSA, trichostatin A]
RKO cells
  expression of Group 2 genes (n=23): up-regulation
  expression of Group 1 genes (n=51): no change in expression
RKO cells; [1]
  basal level of expression of HOXA1, GRO3 and DLX7: not
  expression of POR1, MBNL, TRADD, PDIP, RAD23B, RPL13, GNAI2, PPP1R21A, FPGT and TRIM32: up-regulated
